Assay: solvent given as SMILES
Conditions: in CCOC(C)=O

| emission maximum [nm] | Compound |
| --- | --- |
| 434 | O=C(O)c1ccccc1Nc1ccccc1 |

Same assay, conditions: in CCOCC

| Compound | emission maximum [nm] |
| --- | --- |
| COc1ccc(C2=C3C(C)=CC(C)=[N+]3[B-](F)(F)n3c(/C=C/c4ccc(N(C)C)cc4)cc(C)c32)cc1 | 641 |

Same assay, conditions: in CN(C)C=O

| Compound | emission maximum [nm] |
| --- | --- |
| CCOC(=O)/C(C#N)=C/c1cc2c3ccccc3n(C)c2cc1OC | 486 |
| COc1ccc(C2=C3C(C)=CC(C)=[N+]3[B-](F)(F)n3c(/C=C/c4ccc(N(C)C)cc4)cc(C)c32)cc1 | 718 |
| c1ccc(-c2nn(-c3ccccc3)c3nc4ccc(N(c5ccccc5)c5ccccc5)cc4cc23)cc1 | 567.21 |
| O=C1/C(=C2\Sc3ccc(S(=O)(=O)O)cc3C2=O)Sc2ccc(S(=O)(=O)O)cc21 | 613 |
| O=C(O)c1ccccc1Nc1ccccc1 | 386 |
| C(=C\c1ccc(-c2nnc(-c3ccccc3)o2)cc1)/c1ccc(-c2nnc(-c3ccccc3)o2)cc1 | 415 |

Same assay, conditions: in CO

| emission maximum [nm] | Compound |
| --- | --- |
| 493 | O=C1c2ccccc2-c2c(-c3cc(Cl)ccc3O)[nH]c(=O)n21 |
| 583 | N#CSC1=CC2=C(c3ccccc3)c3ccc(SC#N)n3[B-](F)(F)[N+]2=C1N1CCOCC1 |
| 480 | CN(C)c1ccc(C(=O)c2ccccc2)cc1 |
| 525 | C/C(=N\Nc1ccc(C#N)cc1)c1cccc(/C(C)=N/Nc2ccc(C#N)cc2)c1 |
| 629 | O=C1/C(=C2\Sc3ccc(S(=O)(=O)O)cc3C2=O)Sc2ccc(S(=O)(=O)O)cc21 |
| 390 | O=C(O)c1ccccc1Nc1ccccc1 |

| Compound | emission maximum [nm] |
| --- | --- |
| CCOC(=O)/C(C#N)=C/c1cc2c3ccccc3n(C)c2cc1OC | 486 |
| COc1ccc(C2=C3C(C)=CC(C)=[N+]3[B-](F)(F)n3c(/C=C/c4ccc(N(C)C)cc4)cc(C)c32)cc1 | 696 |

Same assay, conditions: in CS(C)=O

| Compound | emission maximum [nm] |
| --- | --- |
| COc1cccc2cc(-c3cc4cccc(OC)c4oc3=O)oc12 | 488 |
| CCOC(=O)/C(C#N)=C/c1cc2c3ccccc3n(C)c2cc1OC | 488 |
| COc1ccc(C2=C3C(C)=CC(C)=[N+]3[B-](F)(F)n3c(/C=C/c4ccc(N(C)C)cc4)cc(C)c32)cc1 | 737 |
| CN(C)c1ccc(C(=O)c2ccccc2)cc1 | 609 |
| C/C(=N\Nc1ccc(C#N)cc1)c1cccc(/C(C)=N/Nc2ccc(C#N)cc2)c1 | 504 |
| O=C1/C(=C2\Sc3ccc(S(=O)(=O)O)cc3C2=O)Sc2ccc(S(=O)(=O)O)cc21 | 629 |
| Cc1ccc(-c2cc(/C=C/c3ccc(N(c4ccccc4)c4ccccc4)cc3)c(C#N)c(N3CCCCC3)c2)cc1 | 523 |
| c1cc2ccc3ccc(-c4ccc(-c5nnc(-c6ccc(-c7nnc(-c8ccc(-c9ccc%10ccc%11cccc%12ccc9c%10c%11%12)s8)o7)cc6)o5)s4)c4ccc(c1)c2c34 | 374 |

Same assay, conditions: in Cc1ccccc1

| Compound | emission maximum [nm] |
| --- | --- |
| Cc1ccc(N2C(c3ccccc3NS(=O)(=O)c3ccc(C)cc3)=NC(c3ccccc3)C2c2ccccc2)cc1 (configuration not stated) | 375 |
| COc1cccc2cc(-c3cc4cccc(OC)c4oc3=O)oc12 | 448 |
| Cc1cc2cc(N3c4ccccc4Oc4ccccc43)ccc2c(=O)o1 | 540 |
| CCOC(=O)/C(C#N)=C/c1cc2c3ccccc3n(C)c2cc1OC | 446 |
| COc1ccc(C2=C3C(C)=CC(C)=[N+]3[B-](F)(F)n3c(/C=C/c4ccc(N(C)C)cc4)cc(C)c32)cc1 | 640 |
| CCCCCCCCc1ccc(-n2c3c(c4c2c2c(n4-c4ccc(CCCCCCCC)cc4)-c4ccccc4NB2c2ccccc2)B(c2ccccc2)Nc2ccccc2-3)cc1 | 400 |
| C(#Cc1nc2ccccc2s1)c1ccc(N(c2ccc(C#Cc3nc4ccccc4s3)cc2)c2ccc(C#Cc3nc4ccccc4s3)cc2)cc1 | 434 |
| CCCCCCCCCCCCC(CCCCCCCCCC)Cn1c2cc(/C=C/c3nc4ccccc4s3)c3cccc4c5cccc6c(/C=C/c7nc8ccccc8s7)cc1c(c65)c2c34 (configuration not stated) | 582 |
| c1cc2ccc3ccc(-c4ccc(-c5nnc(-c6ccc(-c7nnc(-c8ccc(-c9ccc%10ccc%11cccc%12ccc9c%10c%11%12)s8)o7)cc6)o5)s4)c4ccc(c1)c2c34 | 419 |
| Cc1csc2[n+]1[B-](F)(F)OC(c1ccc(N(C)C)cc1)=N2 | 437 |
| Fc1c(-n2c3ccccc3c3ccccc32)c(F)c(-n2c3ccccc3c3ccccc32)c(-c2nnc(-c3ccccc3)o2)c1-n1c2ccccc2c2ccccc21 | 490 |

Same assay, conditions: in ClC(Cl)Cl

| emission maximum [nm] | Compound |
| --- | --- |
| 422 | Cc1ccc2c3ccc(C)cc3c3cc4c(C)cc(=O)oc4cc3c2c1 |
| 422 | c1ccc2c3c(ccc2c1)C1(c2cc(-c4ccc5ccc6cccc7ccc4c5c67)ccc2-c2ccc(-c4ccc5ccc6cccc7ccc4c5c67)cc21)c1ccc2ccccc2c1O3 |
| 612 | C[N+]1=c2cc3c(cc2C(C)(C)CC1)=C(c1ccccc1C(=O)O)c1cc2c(cc1O3)Oc1cc3c(cc1=C2c1ccccc1C(=O)O)C(C)(C)CC[N+]=3C |
| 476 | C/C(=N\Nc1ccc(C#N)cc1)c1cccc(/C(C)=N/Nc2ccc(C#N)cc2)c1 |
| 502 | Cc1c2c(c(C)c3ccccc13)C1=CC3Nc4ccccc4NC3C=C12 (configuration not stated) |
| 589 | COC(=O)c1ccc(C2=C3C(C)=CC(C)=[N+]3[B-](F)(F)n3c(/C=C/c4c[nH]cn4)cc(C)c32)cc1 |
| 615 | CCn1c2ccccc2sc2c(C#N)c3[nH]c4ccccc4sc3c(C#N)c21 |
| 440 | Cc1ccc(C2CC(=O)Oc3c2c2nc4ccccc4nc2c2ccccc32)cc1 (configuration not stated) |
| 635 | CCCCN1c2ccccc2Sc2cc(/C=C\c3cc(=O)oc4ccc(C)cc34)ccc21 |
| 332 | N#Cc1ccc(C#Cc2ccccc2C#N)cc1 |
| 450 | O=C(O)c1ccccc1Nc1ccccc1 |
| 382 | CC(C)(C)NC(=O)c1ccc2ccc3cccc4ccc1c2c34 |

| Compound | emission maximum [nm] |
| --- | --- |
| CCOC(=O)/C(C#N)=C/c1cc2c3ccccc3n(C)c2cc1OC | 468 |
| COc1ccc(C2=C3C(C)=CC(C)=[N+]3[B-](F)(F)n3c(/C=C/c4ccc(N(C)C)cc4)cc(C)c32)cc1 | 656 |
| c1cc2ccc3ccc(-c4ccc(-c5nnc(-c6ccc(-c7nnc(-c8ccc(-c9ccc%10ccc%11cccc%12ccc9c%10c%11%12)s8)o7)cc6)o5)s4)c4ccc(c1)c2c34 | 373 |

Same assay, conditions: in ClCCl

| emission maximum [nm] | Compound |
| --- | --- |
| 475 | O=C1c2ccccc2-c2c(-c3cc(Cl)ccc3O)[nH]c(=O)n21 |
| 387 | C(=C\c1ccc(-c2ccncc2)cc1)/c1ccc(-c2ccncc2)cc1 |
| 594 | N#CSC1=CC2=C(c3ccccc3)c3ccc(SC#N)n3[B-](F)(F)[N+]2=C1N1CCOCC1 |
| 474 | COC(=O)c1cc(=O)n(Cc2ccccc2)c2cc(-c3ccc(OC)cc3)sc12 |
| 405 | CC(C)(C)NC(=O)c1ccc(F)c2ccc3c4ccccc4c4ccccc4c3c12 |
| 428 | Cc1cccc(-c2c3ccccc3c(-c3cccc(C)n3)c3ccccc23)n1 |
| 454 | N#Cc1ccc(N(c2ccccc2)c2ccc3ccc4c(N(c5ccccc5)c5ccc(C#N)cc5)ccc5ccc2c3c54)cc1 |
| 476 | Cc1cccc2nc(-c3cc(=O)c(OCc4ccccc4)co3)c(NC3CCCCC3)n12 |
| 422 | CN(C)c1cc(-c2ccccc2)cc2ccccc12 |

| Compound | emission maximum [nm] |
| --- | --- |
| CCOC(=O)/C(C#N)=C/c1cc2c3ccccc3n(C)c2cc1OC | 472 |
| CCCCCCCCCCCCC(CCCCCCCCCC)Cn1c2cc(/C=C/c3nc4ccccc4s3)c3cccc4c5cccc6c(/C=C/c7nc8ccccc8s7)cc1c(c65)c2c34 (configuration not stated) | 585 |
| Cc1csc2[n+]1[B-](F)(F)OC(c1ccc(N(C)C)cc1)=N2 | 453 |

Same assay, conditions: in O

| emission maximum [nm] | Compound |
| --- | --- |
| 565 | CN(C)c1ccc2cc3ccc(=[N+](C)C)cc-3oc2c1 |
| 644 | O=C1/C(=C2\Sc3ccc(S(=O)(=O)O)cc3C2=O)Sc2ccc(S(=O)(=O)O)cc21 |
| 542 | CC[n+]1nc2ccc(N(C)C)cc2c2cc(C)ccc21 |

| Compound | emission maximum [nm] |
| --- | --- |
| COc1cccc2cc(-c3cc4cccc(OC)c4oc3=O)oc12 | 504 |
| CC[N+]1(CC)CN2C(=N1)C(C(=O)O)=Cc1c(OC)ccc(OC)c12 | 515 |

Same assay, conditions: in OCCOCCO

| Compound | emission maximum [nm] |
| --- | --- |
| CC1CCC(O)(c2ccc(-c3cccs3)s2)CC1 (configuration not stated) | 414 |

Same assay, conditions: in c1cc(-c2cccc(-n3c4ccccc4c4ccccc43)c2)cc(-n2c3ccccc3c3ccccc32)c1

| emission maximum [nm] | Compound |
| --- | --- |
| 469 | c1ccc(-c2nc(-c3ccccc3)nc(-c3ccc(-c4ccc5c(c4)C4(c6ccccc6-c6ccccc64)c4cc(-c6ccc(-c7nc(-c8ccccc8)nc(-c8ccccc8)n7)cc6)ccc4N5c4ccccc4)cc3)n2)cc1 |

Same assay, conditions: in c1ccccc1

| emission maximum [nm] | Compound |
| --- | --- |
| 497 | CN(C)c1ccc(C(=O)c2ccccc2)cc1 |
| 644 | CN(C)c1ccc2c(c1)C(=O)c1ccccc1-2 |

Same assay, conditions: in c1ccncc1

| Compound | emission maximum [nm] |
| --- | --- |
| CC1CCC(O)(c2ccc(-c3cccs3)s2)CC1 (configuration not stated) | 416 |

Source: the Deep4Chem optical property database
